Measured values: patent publication US12114657B1, “Compositions for use in animal housing” (priority 2017, dated 2024)

Details: in vivo

## OO [hydrogen peroxide]
  antibiotics use as fraction of the normal dose: ⅛
  effect on mortality: reduced mortality
